The term IC50 denotes the concentration at which inhibition is half-maximal. The low end stands for inhibition by little substance, the high end for a need for much substance.

This passage reports IC50 and Ratio results from ChEMBL document CHEMBL1142782, “Inhibition of tumor cell proliferation by thieno[2,3-d]pyrimidin-4(1H)-one-based analogs” (Bioorg Med Chem Lett, 2005).

The test system of one experiment is LoVo. The experiment can be described thus: Inhibitory concentration against human colon tumor cell line LoVo. Format: functional, cell-based.
Experiment [1] addresses Cyclin-dependent kinase inhibitor 1 (Homo sapiens) (UniProt P38936). Briefly: Selectivity ratio between p21(-/-) and p21(+/+) isogenic cell lines. Type of experiment: functional.
For the next experiment, the system named is HT-29. Briefly: Inhibitory concentration against human colon tumor cell line HT-29. Type of experiment: functional, cell-based.
In a further experiment the test system is SW-620. The experiment can be described thus: Inhibitory concentration against human colon tumor cell line SW620. Format: functional, cell-based.
The next experiment deals with DLD-1. The experiment can be described thus: Inhibitory concentration against human colon tumor cell line DLD1. Type of experiment: functional, cell-based.

Cyclin-dependent kinase inhibitor 1 (Homo sapiens), sequence (P38936 whole entry): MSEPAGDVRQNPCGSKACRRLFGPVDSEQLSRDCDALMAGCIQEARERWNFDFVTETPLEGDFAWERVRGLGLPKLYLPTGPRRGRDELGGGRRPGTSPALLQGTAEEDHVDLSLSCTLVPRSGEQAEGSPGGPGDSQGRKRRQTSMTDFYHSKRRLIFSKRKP

`CCOc1ccc(-c2nc(O)c3c4c(sc3n2)CCCC4)cc1`: the IC50 in the experiment with LoVo was determined as 2600 nM; in the experiment with HT-29 it was 5000 nM; with SW-620, 5000 nM; in the experiment on DLD-1 it was 4600 nM. Further, in experiment [1], the Ratio was above 2.4.
With `COc1cc(-c2nc(O)c3c4c(sc3n2)CCC4)cc(OC)c1OC`, the IC50 came out at 130 nM with LoVo, 300 nM in the experiment on HT-29, 190 nM in the experiment with SW-620 and 260 nM in the experiment on DLD-1. Further, the Ratio in experiment [1] is above 5.8.
The matching figures for `COc1ccc(-c2nc(O)c3c4c(sc3n2)CCC4)cc1`: 150 nM, 330 nM, 230 nM, 290 nM and 8.3.
`CSc1ccc(-c2nc(O)c3c4c(sc3n2)CCCC4)cc1`: the IC50 was found to be 430 nM in the experiment on LoVo, 1000 nM in the experiment with HT-29, 800 nM in the experiment with SW-620 and 890 nM in the experiment with DLD-1. Also, the Ratio in experiment [1] was above 4.9.
On to `COc1ccc(-c2nc(O)c3c4c(sc3n2)CCCC4)cc1`, for which the IC50 in the experiment on LoVo was 150 nM; in the experiment with HT-29 it was 330 nM; in the experiment on SW-620, 230 nM; in the experiment on DLD-1, 290 nM. For the same compound, the Ratio in experiment [1] is above 8.5.
As to `O=C(c1cccs1)c1cnn2c(-c3cccc(NC(=O)C4CC4)c3)ccnc12`, the Ratio in experiment [1] was determined as 30.
As to `COc1ccc(-c2nc(O)c3c4c(sc3n2)CCCC4)c(F)c1`, the IC50 in the experiment on LoVo stood at 460 nM; in the experiment on HT-29, 420 nM; in the experiment on SW-620 it was 420 nM; with DLD-1 it was 220 nM. The Ratio in experiment [1] came out at 19.
As for `COc1cc(-c2nc(O)c3c4c(sc3n2)CCCC4)cc(OC)c1OC`, the IC50 was found to be 140 nM in the experiment on LoVo, 240 nM with HT-29, 190 nM with SW-620 and 280 nM in the experiment on DLD-1. The Ratio in experiment [1] is above 8.7.
In the case of `COc1cc(-c2nc(O)c3c4c(sc3n2)CCCCC4)cc(OC)c1OC`, the IC50 came to 170 nM with LoVo, 450 nM in the experiment on HT-29, 220 nM with SW-620 and 350 nM with DLD-1. Also, in experiment [1], the Ratio was determined as 8.7.
